This data set deals with patients with short bowel syndrome (SBS). As to the kind of experiment: Safety monitoring (adverse events, laboratory, vital signs, ECGs, antibodies). The text has this: During each inpatient period, patients underwent 72-hour nutrient balance and D-Xylose absorption studies, and a proximal or distal endoscopy to ascertain the condition of the intestinal mucosa and obtain biopsy samples. In jejunostomy patients, biopsies were obtained through the jejunostomy stoma or by upper gastrointestinal endoscopy. In patients with colon-in-continuity, colo-rectal biopsies were obtained. Teduglutide treatment began on Day 1 (immediately after the baseline period) and continued once-daily for 21 days. […] Patients were monitored for safety (adverse events, physical exams, vital signs, ECGs, laboratory results, and injection site examinations) during the inpatient periods and during outpatient visits on days 7 and 14.

This is an account of results in US9999656B2, “Treatment of short bowel syndrome patients with colon-in-continuity” (Shire-NPS Pharmaceuticals, Inc., priority 2004, dated 2018).

Consider `CC[C@H](C)[C@H](NC(=O)[C@H](Cc1ccccc1)NC(=O)[C@H](CC(=O)O)NC(=O)[C@H](CCCNC(=N)N)NC(=O)[C@H](C)NC(=O)[C@H](C)NC(=O)[C@H](CC(C)C)NC(=O)[C@H](CC(N)=O)NC(=O)[C@H](CC(=O)O)NC(=O)[C@H](CC(C)C)NC(=O)[C@@H](NC(=O)[C@@H](NC(=O)[C@H](CC(N)=O)NC(=O)[C@H](CCSC)NC(=O)[C@H](CCC(=O)O)NC(=O)[C@H](CC(=O)O)NC(=O)[C@H](CO)NC(=O)[C@H](Cc1ccccc1)NC(=O)[C@H](CO)NC(=O)CNC(=O)[C@H](CC(=O)O)NC(=O)CNC(=O)[C@@H](N)Cc1c[nH]cn1)[C@@H](C)O)[C@@H](C)CC)C(=O)N[C@@H](CC(N)=O)C(=O)N[C@@H](Cc1c[nH]c2ccccc12)C(=O)N[C@@H](CC(C)C)C(=O)N[C@H](C(=O)N[C@@H](CCC(N)=O)C(=O)N[C@H](C(=O)N[C@@H](CCCCN)C(=O)N[C@H](C(=O)N[C@H](C(=O)N[C@@H](CC(=O)O)C(=O)O)[C@@H](C)O)[C@@H](C)CC)[C@@H](C)O)[C@@H](C)CC` [teduglutide, [Gly2]hGLP-2], for which the antibodies to teduglutide entry (SBS patients, 21 days dosing) was “No antibodies to teduglutide were detected”. Moreover, the “deaths and withdrawals due to adverse events” value (all patients) is “no deaths and no withdrawals due to adverse events”. Moreover, under “in vivo”, the injection site reactions result is on record as “Three patients had minor injection site reactions”; the laboratory values result was “No clinically significant abnormal laboratory values”; the “most common AEs” value is “edema of the lower limbs, and localized swelling of the jejunostomy nipple”; the “relation of serious AEs (catheter-related infection or complication, two patients) to drug” value was “None of these were judged to be related to teduglutide”. Moreover, the “vital signs or ECGs” value (in vivo) is “No safety concerns were raised”.
